Drawing on BindingDB's records for doi:10.7270/Q20000JS (Johns Hopkins Ion Channel Center, 2010), this text covers EC50 for two molecules.

Broadly, the EC50 is the concentration needed to bring the measured effect to its halfway point.

For this assay, the target named is Potassium voltage-gated channel subfamily KQT member 2 (Rattus norvegicus, UniProt O88943). Description: potentiation of rat KCNQ2 current – cell-based, automated electrophysiology, mechanism study for KCNQ2 potentiator project, dose response (AID 2603).
Sequence of Potassium voltage-gated channel subfamily KQT member 2 (O88943 whole entry): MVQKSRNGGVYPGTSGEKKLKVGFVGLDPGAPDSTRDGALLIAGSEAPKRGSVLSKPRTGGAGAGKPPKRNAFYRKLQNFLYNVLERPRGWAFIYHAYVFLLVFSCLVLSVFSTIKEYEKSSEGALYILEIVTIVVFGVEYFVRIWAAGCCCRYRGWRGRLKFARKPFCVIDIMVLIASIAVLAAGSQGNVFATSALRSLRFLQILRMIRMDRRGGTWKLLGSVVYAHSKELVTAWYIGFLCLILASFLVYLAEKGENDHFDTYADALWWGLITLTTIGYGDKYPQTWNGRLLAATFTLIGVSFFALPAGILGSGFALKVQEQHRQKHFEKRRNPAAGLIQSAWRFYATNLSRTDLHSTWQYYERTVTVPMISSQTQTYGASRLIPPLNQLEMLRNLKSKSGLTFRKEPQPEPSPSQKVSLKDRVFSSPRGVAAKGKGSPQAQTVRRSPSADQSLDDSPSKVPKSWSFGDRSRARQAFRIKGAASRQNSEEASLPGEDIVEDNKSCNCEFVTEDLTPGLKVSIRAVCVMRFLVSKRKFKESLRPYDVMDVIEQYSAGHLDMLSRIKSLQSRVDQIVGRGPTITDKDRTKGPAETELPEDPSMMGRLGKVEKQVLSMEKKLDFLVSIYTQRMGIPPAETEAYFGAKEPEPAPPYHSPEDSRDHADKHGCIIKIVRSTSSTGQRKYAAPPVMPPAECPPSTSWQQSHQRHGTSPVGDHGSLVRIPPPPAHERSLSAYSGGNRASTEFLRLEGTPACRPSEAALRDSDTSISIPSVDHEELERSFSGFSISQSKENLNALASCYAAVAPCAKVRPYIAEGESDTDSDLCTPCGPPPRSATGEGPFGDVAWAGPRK

As for `CC(C)N1C(=O)C(=NNc2ccc(Cl)c(C(=O)O)c2)c2ccccc21` [MLS000773916], the EC50 worked out at 3.7 µM.

For `CC1=NC(=O)NC(c2cccc(O)c2)C1C(=O)OC1CCCCCCC1` (configuration not stated) [SMR000111748], the EC50 was found to be 537 µM.
